Data taken from patent US7119095B2, “Pharmaceutically active compounds and methods of use thereof” (Dana Farber Cancer Institute, priority 2001, dated 2006).

Assays:
T. gondii DHFR [1] = molecular target: T1, T. gondii DHFR (Toxoplasma gondii, UniProt Q07422); settings: reported in the literature; cited from earlier work
T1 sequence (Q07422 1-610): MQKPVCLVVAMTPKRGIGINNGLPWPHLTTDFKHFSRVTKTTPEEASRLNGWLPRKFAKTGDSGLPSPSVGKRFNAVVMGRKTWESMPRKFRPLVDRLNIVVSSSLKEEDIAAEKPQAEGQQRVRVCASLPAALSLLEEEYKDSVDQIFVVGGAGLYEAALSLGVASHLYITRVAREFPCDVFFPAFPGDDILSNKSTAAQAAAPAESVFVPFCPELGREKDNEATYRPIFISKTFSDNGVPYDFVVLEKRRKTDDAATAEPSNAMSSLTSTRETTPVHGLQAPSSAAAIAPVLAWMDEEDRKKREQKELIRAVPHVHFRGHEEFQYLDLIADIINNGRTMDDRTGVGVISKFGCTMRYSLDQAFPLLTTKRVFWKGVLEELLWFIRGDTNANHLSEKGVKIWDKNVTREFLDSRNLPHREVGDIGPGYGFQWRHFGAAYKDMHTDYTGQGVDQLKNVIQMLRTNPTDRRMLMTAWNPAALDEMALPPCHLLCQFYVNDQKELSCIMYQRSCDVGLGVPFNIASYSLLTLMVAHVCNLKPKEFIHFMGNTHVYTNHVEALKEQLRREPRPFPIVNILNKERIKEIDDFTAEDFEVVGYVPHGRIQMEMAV

T. gondii DHFR [2] = molecular target: T1, T. gondii DHFR; format: biochemical; settings: compounds 3a-k
rat liver DHFR = molecular target: T2, rat liver DHFR (Rattus norvegicus, UniProt Q920D2); assay: Inhibition of rat liver DHFR (literature assay); settings: read-out: IC50 (μM) Rat liver, compounds 3a-k
T2 sequence (Q920D2 1-187): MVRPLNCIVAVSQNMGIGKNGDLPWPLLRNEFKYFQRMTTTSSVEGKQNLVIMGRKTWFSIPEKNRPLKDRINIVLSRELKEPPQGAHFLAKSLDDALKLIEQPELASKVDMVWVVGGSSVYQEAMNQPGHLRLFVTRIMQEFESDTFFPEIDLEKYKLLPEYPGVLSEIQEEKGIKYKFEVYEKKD

M. avium DHFR = molecular target: T3, M. avium DHFR (Mycobacterium avium, UniProt O30463); assay: Inhibition of M. avium DHFR (literature assay); format: biochemical; settings: compounds 3a-k
T3 sequence (O30463 1-181): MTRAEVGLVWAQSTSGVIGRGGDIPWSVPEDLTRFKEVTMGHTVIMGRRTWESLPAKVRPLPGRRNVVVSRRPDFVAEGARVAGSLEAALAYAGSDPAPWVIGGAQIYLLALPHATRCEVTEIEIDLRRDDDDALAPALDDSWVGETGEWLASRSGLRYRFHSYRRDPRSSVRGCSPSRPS

E. coli DHFR = E. coli DHFR (Escherichia coli, UniProt P0ABQ4); settings: Kuyper et al., J. Med. Chem. 1985; cited from earlier work

Compound | selectivity T. gondii versus rat liver DHFR (T. gondii DHFR [1]) | IC50 (T. gondii DHFR [2]) [µM] | IC50 (rat liver DHFR) [µM] | IC50 (M. avium DHFR) [µM] | Ki E. coli DHFR (E. coli DHFR)
CCOc1cc(Cc2cnc(N)nc2N)cc(OCC)c1-n1cccc1 [Compound 19, epiroprim] | 155 |  |  |  | 
COc1ccc(OCCCC(=O)O)cc1Cc1cnc(N)nc1N [Compound 3f] |  | 0.18 | 2.6 | 0.0048 | 
COc1cc(Cc2cnc(N)nc2N)cc(OCCCCCC(=O)O)c1OC [Compound 18] |  |  |  |  | highest affinity
COc1ccc(OCCCCCCCCC(=O)O)cc1Cc1cnc(N)nc1N [Compound 3k] |  | 0.43 | 12 |  | 
COc1ccc(OCCCCCCCC(=O)O)cc1Cc1cnc(N)nc1N [Compound 3j] |  | 0.36 | 12 | 0.13 | 
CCCCCCCCCOc1ccc(OC)c(Cc2cnc(N)nc2N)c1 [Compound 3e, 2,4-Diamino-5-(2-methoxy-5-nonyloxybenzyl)pyrimidine] |  | 32 | 86 | 32 | 
CCCCCCCOc1ccc(OC)c(Cc2cnc(N)nc2N)c1 [Compound 3c, 2,4-Diamino-5-(2-methoxy-5-heptyloxybenzyl)pyrimidine] |  | 5 | 11 | 0.89 | 
CCCCCCCCOc1ccc(OC)c(Cc2cnc(N)nc2N)c1 [Compound 3d, 2,4-Diamino-5-(2-methoxy-5-octyloxybenzyl)pyrimidine] |  | 15 | 30 |  | 
COc1ccc(OCCCCCCC(=O)O)cc1Cc1cnc(N)nc1N [Compound 3i] |  |  | 12 | 0.19 | 
CCCCCOc1ccc(OC)c(Cc2cnc(N)nc2N)c1 [Compound 3a, 2,4-Diamino-5-(2-methoxy-5-pentyloxybenzyl)pyrimidine] |  | 6.5 | 44 | 0.31 | 
CCCCCCOc1ccc(OC)c(Cc2cnc(N)nc2N)c1 [Compound 3b, 2,4-Diamino-5-(2-methoxy-5-hexyloxybenzyl)pyrimidine] |  | 9.2 | 29 | 0.39 | 
COc1ccc(OCCCCCC(=O)O)cc1Cc1cnc(N)nc1N [Compound 3h] |  | 0.48 | 17 | 0.15 | 
